Data: publication PMC10669625 (Biomedicines, 2023)

Experiments:
[1] = Breath limonene by selected ion flow tube mass spectrometry (SIFT-MS), one 15 s exhalation; format: in vivo; settings: unpublished data
[2] = set-up: method as in PMID 20661827; settings: cited from earlier work
[3] = set-up: method as in PMID 30845345; settings: mice; oral and inhalation intake; within 30 min post administration; cited from earlier work
[4] = set-up: method as in PMID 9682146, PMID 9654110; settings: after oral administration; cited from earlier work
[5] = Limonene exhalation kinetics in breath (Breath Biopsy, GC-MS) after ingestion of 100 mg limonene; settings: for Cmax (ng) median [IQR]: 100 mg limonene oral, overnight fast

SMILES: C=C(C)[C@H]1CC=C(C)CC1 [limonene]
- Breath levels of limonene before administration [1]: a few
- Increase of breath limonene after administration vs before [1]: > 1000 fold
- Breath levels of limonene after administration ([1]; up to): 5–10 PPM
- Average increase in adipose tissue ([2]; after 4 weeks of continuous exposure): 44 fold
- Accumulation in adipose tissue ([2]; after a single dose): no accumulation
- Organ distribution [3]: majority of limonene found in the liver
- Distribution volume [4]: greater than total body water
- Limonene spike in breath after administration compared to baseline ([5]; all subjects, 100 mg limonene): > 100 fold
- Slope (rate of elimination) ([5]; breath, semi-logarithmic scale, control group): −0.027 [−0.031–−0.023]
- AUC (0–90 min) median [IQR] ([5]; breath, cirrhosis group): 121,437 [57,921–202,733] ng × min/400 mL
- Cmax (ng) median [IQR] ([5]; breath, cirrhosis group): 2077 [1051–4260] ng
- AUC (0–90 min) median [IQR] ([5]; breath, control group): 27,107 [17,605–34,946] ng × min/400 mL
- Cmax (ng) median [IQR] ([5]; breath, control group): 595 [361–903] ng
- Cmax ([5]; case report subject DYL10297 (enrolled as control, suspected mild chronic liver disease), at 40 min): 2421 ng
